Results on 21 compounds are retold here after patent US20260308102A1, “18F-FLUORINATED FATTY ACIDS AND USES THEREOF” (Ratio Therapeutics, Inc., priority 2022, published 2026).

A word on the pKi: it is −log10 of the Ki, conventionally taken in molar units.

pKi: −log10 of the molar value. “Also recorded” adds a separate entry of the source.

A short description of series [1]: Static μPET/CT imaging at 45 min p.i. of medium and long chain 18F-fatty acids (Example 2). As to conditions: for brain uptake: includes earlier short chain data; for defluorination (bone uptake) / metabolic rate: static PET.
Protocol: All animal experiments were approved by the Albert Einstein College of Medicine IACUC. Wild type immunocompetent animals were used for imaging. Feeding and water conditions were maintained throughout the study. Animals were never fasted.
The agent was administered to awake animals via tail-vein injection (9.25-18.5 MBq, or 250-500 μCi, n=2) and placed back into their cages. At 40 minutes post injection (henceforth p.i.), animals were place in an acrylic enclosure under 4% isoflurane anesthesia in O2 for initial knockdown, then reduced to 2.5%. Once asleep, animals were placed in the imaging holder and a 5-minute CT followed by a 15-minute static PET were performed (Approx. 45-60 min p.i.). As before, animals were allowed to recover from the anesthesia before returning to the holding facility for radiotracer decay. Images were analyzed by drawing regions of interest (ROIs) and quantifying the amount of tracer present as percent of injected activity per cubic centimeter (% IA/cc). Blood, urinary bladder and gut activity were determined by computer drawing of 2 mm diameter ROI spheres in the left cardiac ventricle, the urinary bladder and the areas of specific gut uptake, respectively. Brain, liver and kidney ROIs were drawn CT-aided and the radioactive contents were later quantified.
Series [2] in a line: Stability in HCl and saline solution. The class given is physicochemical. As to conditions: for stability in HCl: HCl lower than 3 M.
Series [3] relates to monocarboxylate transporter (MCT). Nature of the series: PET imaging of 2-[^18F]FP with lactate displacement and MCT inhibition by AZD-3965 co-injection. The class given is in vivo, wild type mice. An excerpt: FIG. 2 is a graph depicting PET-derived quantification of brain and pancreatic (“gut”) uptake of 2-[^18F]FP and 2-(L)-[^18F]FP under different conditions (n=2).
FIG. 12 is a collection of dynamic μPET/CT images that compare different imaging conditions including blocking with the MCT1 blocker AZD3965.
Further experiments to test the possibility of using 2-[^18F]FP and 2-(L)-[^18F]FP as a lactate surrogate, including co-injection with (L)Lactate, (D)Lactate, and AZD-3965 to produce displacement and monocarboxylate transporter (MCT) inhibition (respectively) were conducted and results can be observed in FIG. 2. The corresponding μPET/CT images can be found in the FIG. 12.
The unique characteristics of 2-[^18F]FP open many possibilities to study cancers and brain/CNS function and metabolism. As with 2-[^18F]FB the enantiomers have not been separated for either production or quality control. However, parametric production of 2-(L)-[^18F]FP was possible since the ethyl(2R)-2-{[(4-methylphenyl) sulfonyl]oxy}propanoate is commercially available. This compound's ability to resemble (L)-lactate has been contested in vitro, with confounding in vivo results. For comparison we co-injected 2-[^18F]FP separately with 0.5 and 5 mg/kg (L) and (D) sodium lactate (an increase of 5 and 50% respectively in homeostatic lactate circulation), and 5 mg/Kg of AZD-3965, an monocarboxylate transporter (MCT) 1 and 2 inhibitor (Ki(MCT1)=3 nM, Ki(MCT2)=20 nM) in the same animal model.

The target of series [4] is MCT1. The settings on record: role: inhibitor; cited from earlier work.
The target in a further series is MCT2. The settings on record: role: inhibitor; cited from earlier work.
The subject of series [5] is MCT1. The settings on record: in vitro, Van Hée et al.; cited from earlier work.
Series [6] in a line: Static μPET/CT imaging at 45 min p.i. of short chain 18F-fatty acids and esters (Example 1).
Protocol: FIG. 1 is a series of Static Sagital and Coronal Maximum Intensity Projections (MIPs) μPET/CT images obtained at 45 minutes p.i. for the compounds studied (excluding palmitate) in normally fed animals. Imaging with ethyl-protected intermediates are also shown (e-).
Wild type immunocompetent animals were used, both for imaging and biodistribution experiments.
The activity was administered to the awake animals (n=2) via tail-vein injection (9.25-18.5 MBq, or 250-500 μCi) and placed back into their cages. At 35 minutes post injection (p.i.), animals were place in an acrylic enclosure under 4% isoflurane anesthesia in O2 for initial knockdown, then reduced to 2.5%. Once asleep, animals were placed in the imaging holder and a 5-minute CT was followed by a 15-minute static PET (approx. 45-60 min p.i., or 10-15 min after completion of anesthesia). As before, animals were allowed to recover from the anesthesia before returning to the holding facility for decay. When warranted, animals were studied with regular feeding and fasting for 6-12 hours to evaluate any difference in biodistribution.
A short description of series [7]: Dynamic PET imaging (60 min) of butyrate analogues (Example 1). The class given is in vivo, wild type mice. As to conditions: for in vivo behavior / biodistribution, comparison of isomers: 4-[^18F]FB vs 2-[^18F]FB. As to the method:
FIG. 10 is a series of dynamic μPET/CT images depicting the biodistribution of 2-[^18F]FB and 4-[^18F]FB in wild type mice. Stable biodistribution was achieved after 45 minutes p.i.
Animals were anesthetized under 3% isoflurane in 02. […] Animals were allowed to recover from anesthesia and were carefully observed before moving them back to the holding facility for decay. Data was reconstructed as five 12-minute frames and as twelve 5-minute frames for analysis.

The conditions of series [8]: cancer patients; cited from earlier work.
The mark [9] stands for this setting: co-injection with AZD-3965, 5 mg/Kg.

As for `CCCC([18F])C(=O)O` (racemic) [2-[^18F]FV, 2-Fluorovalerate], in series [1] (45 min p.i.), the specific abdominal uptake entry is reported as “evident”, the brain uptake entry is “High brain uptake” and the “defluorination (bone uptake)” value was “small bone uptake”.
As to `CCOC(=O)CC(C)[18F]` (stereo not drawn) [e-3-[^18F]FB, Ethyl 3-[^18F]Fluorobutyrate], in series [2], the “stability in HCl” value is recorded as “not stable” and the “stability in saline solution” value is “decomposed immediately”.
For `CCCCCC([18F])C(=O)O` (racemic) [2-[^18F]FE, 2-Fluoroenanthate], in series [1] (45 min p.i.), the specific abdominal uptake result is “not found”, the brain uptake result was “significantly reduced; also recorded: all brain uptake is stopped; also recorded: stops abruptly” and the “defluorination (bone uptake)” value is “small bone uptake”.
`Cc1[nH]nc(C(F)(F)F)c1Cc1sc2c(c1C(=O)N1C[C@](C)(O)CO1)c(=O)n(C)c(=O)n2C(C)C` [AZD-3965]: in series [3] (co-injection with AZD-3965), the “blocking of gut uptake by AZD-3965” value is recorded as “selectively blocked”. Moreover, in series [3] (setting [9]), the “blocking of uptake / biodistribution by AZD-3965” value is “blocked the overall biodistribution of 2-[^18F]FP; also recorded: significant blocking of fatty acid uptake” and the “excretion with AZD-3965 co-injection” value is given as “almost complete excretion; also recorded: increased excretion”. Also, the pKi on MCT1 [4] was 8.52. At MCT2, the pKi is 7.70.
For `CC([18F])C(=O)O` (racemic) [2-[^18F]FP, 2-[^18F]Fluoropropionate], in series [3] (different imaging conditions (fasting, lactate)), the “abdominal uptake under different imaging conditions” value is “remained stable and not affected by the different imaging conditions”. Besides, the “average brain uptake, fasting or co-injection with (L)-lactate” value in series [3] (fasting, co-injection with 5 mg/kg (L)-lactate, differences not significant) was “slight increase in average brain uptake”. Also, the MCT1-dependent accumulation entry in the series with MCT1 [5] is reported as “does not accumulate in a MCT1-dependent manner”. Also, the brain uptake entry in [1] (45 min p.i.) was “High brain uptake”. In [6] (no metabolite analysis performed), the “apparent stability in vivo” value is reported as “seems to be stable in vivo in the studied period; also recorded: high apparent probe stability in vivo”. Besides, in series [6] (static PET, 45 min p.i.), the blood circulation time entry is on record as “decreased circulation times” and the defluorination in vivo entry is reported as “only minor defluorination was observed; also recorded: no defluorination was observed”. For the same compound, the brain/CNS uptake result in series [6] (static PET, 45 min p.i., fed) was “maintained CNS uptake; also recorded: specific uptake in brain and the central nervous system; also recorded: marked brain uptake”.
Take `CCOC(=O)CC[18F]` [e-3-[^18F]FP, Ethyl 3-[^18F]Fluoropropionate]: in series [2], the “stability in HCl” value was “not stable” and the “stability in saline solution” value is given as “decomposed immediately”.
For `CCCCC([18F])C(=O)O` (racemic) [2-[^18F]FC, 2-Fluorocaproate], in series [1] (45 min p.i.), the specific abdominal uptake entry is “not found”, the brain uptake entry is recorded as “High brain uptake; also recorded: the longest substrate absorbed by the brain” and the “defluorination (bone uptake)” value is reported as “Almost no defluorination”.
For `CCOC(=O)CCC[18F]` [e-4-[^18F]FB, Ethyl 4-[^18F]Fluorobutyrate], in [6] (static PET, 45 min p.i.), the blood circulation time entry is reported as “slightly longer blood circulation” and the general biodistribution result is “almost identical biodistribution”.
Consider `O=C(O)CCCCCC[18F]` [7-[^18F]FE, 7-Fluoroenanthate], for which the metabolic rate entry in series [1] (45 min p.i.) is “much faster metabolic rate than that of 6-[^18F]FC and 8-[^18F]FCy”.
For the compound `CCC([18F])C(=O)O` (racemic) [2-[^18F]FB, 2-[^18F]Fluorobutyrate], in [7], the “brain/central nervous system (CNS) uptake” value is “the highest of the studied series”; the gut uptake result was “seemingly specific gut uptake”; the “in vivo behavior / biodistribution, comparison of isomers” value was “behaved very differently in vivo”. Besides, the brain uptake result in series [1] (45 min p.i.) is recorded as “High brain uptake”. Besides, the brain uptake entry in series [1] (45 min p.i., listed as 2-[^18F]Fluorobutyrate) is recorded as “peaking”. Also, in [6] (fasted vs fed, 45 min p.i.), the “brain uptake, fasted vs fed” value is reported as “small reduction in brain uptake (not significant)”; the “circulatory activity, fasted vs fed” value is on record as “slight increase in circulatory activity”; the “gut uptake, fasted vs fed” value is recorded as “modest reduction; also recorded: reduction in the aforementioned specifically located gut uptake”; the “metabolic activity / defluorination, fasted vs fed” value is “reduced defluorination; also recorded: slight decrease in metabolic rate”. In addition, in [6] (static PET, 45 min p.i., fed), the brain/CNS uptake result is given as “marked brain uptake”. Moreover, the “brain uptake with or without isoflurane anesthesia and fasting” value in series [6] (with or without isoflurane, with or without fasting) is “remained unchanged with or without isoflurane anesthesia, and with or without fasting”.
As for `O=C(O)CC[18F]` [3-[^18F]FP, 3-[^18F]Fluoropropionate], in series [2], the “stability in HCl” value is reported as “not stable” and the “stability in saline solution” value was “decomposed immediately”.
With `CCOC(=O)C([18F])CC` (stereo not drawn) [e-2-[^18F]FB, Ethyl 2-[^18F]Fluorobutyrate], in series [6] (static PET, 45 min p.i.), the blood circulation time entry is reported as “slightly longer blood circulation” and the general biodistribution entry was “almost identical biodistribution”.
Turning to `CCCCCCC([18F])C(=O)O` (racemic) [2-[^18F]FCy, 2-Fluorocaprylate], in [1] (45 min p.i.), the specific abdominal uptake entry is listed as “not found”, the brain uptake result is given as “significantly reduced” and the “defluorination (bone uptake)” value was “Almost no defluorination”.
Take `CC(=O)O` [[^11C]Acetate]: in [8], the “uptake in comparison with [^18F]FDG” value is “mutually exclusive”.
For the compound `O=C(O)C[18F]` [[^18F]FA, [^18F]Fluoroacetate], the brain uptake entry in series [1] (45 min p.i.) is on record as “High brain uptake”. Also, the blood circulation time result in [6] (static PET, 45 min p.i.) was “decreased circulation times”. Also, in series [6] (static PET, 45 min p.i., fed), the brain/CNS uptake result is reported as “maintained CNS uptake” and the specific gut uptake result is listed as “highest uptake”.
For `O=C(O)CCC[18F]` [4-[^18F]FB, 4-[^18F]Fluorobutyrate], in series [7], the “in vivo behavior / biodistribution, comparison of isomers” value is reported as “behaved very differently in vivo”. In [6] (fasted vs fed, 45 min p.i.), the “circulatory activity, fasted vs fed” value is “slight increase in circulatory activity” and the “metabolic activity / defluorination, fasted vs fed” value was “reduced defluorination; also recorded: reduction in metabolic activity was especially noticeable; also recorded: slight decrease in metabolic rate”.
As to `CC([18F])CC(=O)O` (stereo not drawn) [3-[^18F]FB, 3-[^18F]Fluorobutyrate], in series [2], the “stability in HCl” value was “not stable” and the “stability in saline solution” value is “decomposed immediately”.
Consider `O=C(O)CCCCCCCCCCCCCCC[18F]` [16-[^18F]FPalm, 16-[^18F]Fluorohexadecanoic acid], for which the “bright spot in liver / autopsy finding” value in [1] (one animal) is reported as “a bright spot was found in one the animal's liver, but later autopsy did not revealed any interesting finding”. Moreover, the “defluorination (bone uptake)” value in [1] (45 min p.i.) was “faster for the 16-substituted compound, although much slower in contrast to its MCFA n-substituted congeners”.
Regarding `O=C(O)CCCC[18F]` [5-[^18F]FV, 5-Fluorovalerate], in [1] (45 min p.i.), the metabolic rate entry is “much faster metabolic rate than that of 6-[^18F]FC and 8-[^18F]FCy”.
In the case of `CCCCCCCCCCCCCCC([18F])C(=O)O` (racemic) [2-[^18F]FPalm, 2-[^18F]Fluorohexadecanoic acid], in [1] (45 min p.i.), the blood content result is given as “reduced”, the liver uptake result is “predominant liver uptake”, the specific abdominal uptake entry is listed as “not found” and the brain uptake entry was “significantly reduced”. The “defluorination (bone uptake)” value in series [1] (45 min p.i.) is listed as “slightly higher defluorination rate”.
Take `CC(C)([18F])C(=O)O` [2-[^18F]FIB, 2-[^18F]Fluoroisobutyrate]: in series [6] (static PET, 45 min p.i.), the blood circulation time entry is on record as “long circulation time”, the defluorination in vivo entry was “without defluorination” and the general biodistribution entry is “non-specificity”. Also, the brain/CNS uptake entry in series [6] (static PET, 45 min p.i., fed) is listed as “marked brain uptake in contrast to their branched congener”.
